Literature values in patent publication US9445940B2, “System and method for inducing hypothermia with control and determination of catheter pressure” (Zoll Circulation, Inc., priority 2003, dated 2016).

Tested on: shivering threshold
Details: stated as believed, no experiment by the applicant

CCOC(=O)C1(c2ccccc2)CCN(C)CC1 [Meperidine]
decrease of shivering threshold relative to vasoconstriction threshold: twice as much as the vasoconstriction threshold
